Data published in the NIST ThermoML archive (doi:10.1021/je8004613).
± gives the expanded uncertainty stated by the source.

Key:
[1] = 101.33 kPa, Liquid; for speed of sound: Pulse-echo method; for mass density: Vibrating tube method
[2] = excess molar enthalpy (molar enthalpy of mixing); xn = mol fraction of the nth substance listed; settings: 298.15 K, 101 kPa, Liquid

CCCCCCCC [octane]
[1]
Settings	mass density [kg/m3]	speed of sound [m/s]
288.15 K	706.58 ± 0.23	1213.6 ± 1
293.15 K	702.57 ± 0.23	1193 ± 1
298.15 K	698.55 ± 0.23	1171.9 ± 1
303.15 K	694.48 ± 0.23	1151 ± 1
308.15 K	690.42 ± 0.23	1130.3 ± 1

CCCCCCCC [octane] + CCCCO
[2]
Settings	excess molar enthalpy [kcal/mol]
x2 = 0.03632	0.0772 ± 0.00167
x2 = 0.0645	0.102 ± 0.00191
x2 = 0.1182	0.128 ± 0.00239
x2 = 0.1568	0.137 ± 0.00239
x2 = 0.2031	0.152 ± 0.00263
x2 = 0.2488	0.158 ± 0.00287
x2 = 0.299	0.163 ± 0.00287
x2 = 0.345	0.164 ± 0.00287
x2 = 0.4028	0.163 ± 0.00287
x2 = 0.4499	0.16 ± 0.00287
x2 = 0.5029	0.152 ± 0.00263
x2 = 0.6034	0.134 ± 0.00239
x2 = 0.6988	0.112 ± 0.00215
x2 = 0.7979	0.0817 ± 0.00167
x2 = 0.9005	0.0435 ± 0.0012
x2 = 0.9493	0.0225 ± 0.000717
